The source made the active and inactive calls. No cut-off for these calls is given here.
What was measured:
[1] = target: T1, Protein deacetylase HDAC6 (Homo sapiens) (UniProt Q9UBN7); assay: Inhibition of HDAC6 in human A549 cells assessed as acetyl alpha-tubulin level at 2 uM incubated for 5 hrs by western blot analysis relative to control; assay type: cell-based
T1 sequence (whole entry): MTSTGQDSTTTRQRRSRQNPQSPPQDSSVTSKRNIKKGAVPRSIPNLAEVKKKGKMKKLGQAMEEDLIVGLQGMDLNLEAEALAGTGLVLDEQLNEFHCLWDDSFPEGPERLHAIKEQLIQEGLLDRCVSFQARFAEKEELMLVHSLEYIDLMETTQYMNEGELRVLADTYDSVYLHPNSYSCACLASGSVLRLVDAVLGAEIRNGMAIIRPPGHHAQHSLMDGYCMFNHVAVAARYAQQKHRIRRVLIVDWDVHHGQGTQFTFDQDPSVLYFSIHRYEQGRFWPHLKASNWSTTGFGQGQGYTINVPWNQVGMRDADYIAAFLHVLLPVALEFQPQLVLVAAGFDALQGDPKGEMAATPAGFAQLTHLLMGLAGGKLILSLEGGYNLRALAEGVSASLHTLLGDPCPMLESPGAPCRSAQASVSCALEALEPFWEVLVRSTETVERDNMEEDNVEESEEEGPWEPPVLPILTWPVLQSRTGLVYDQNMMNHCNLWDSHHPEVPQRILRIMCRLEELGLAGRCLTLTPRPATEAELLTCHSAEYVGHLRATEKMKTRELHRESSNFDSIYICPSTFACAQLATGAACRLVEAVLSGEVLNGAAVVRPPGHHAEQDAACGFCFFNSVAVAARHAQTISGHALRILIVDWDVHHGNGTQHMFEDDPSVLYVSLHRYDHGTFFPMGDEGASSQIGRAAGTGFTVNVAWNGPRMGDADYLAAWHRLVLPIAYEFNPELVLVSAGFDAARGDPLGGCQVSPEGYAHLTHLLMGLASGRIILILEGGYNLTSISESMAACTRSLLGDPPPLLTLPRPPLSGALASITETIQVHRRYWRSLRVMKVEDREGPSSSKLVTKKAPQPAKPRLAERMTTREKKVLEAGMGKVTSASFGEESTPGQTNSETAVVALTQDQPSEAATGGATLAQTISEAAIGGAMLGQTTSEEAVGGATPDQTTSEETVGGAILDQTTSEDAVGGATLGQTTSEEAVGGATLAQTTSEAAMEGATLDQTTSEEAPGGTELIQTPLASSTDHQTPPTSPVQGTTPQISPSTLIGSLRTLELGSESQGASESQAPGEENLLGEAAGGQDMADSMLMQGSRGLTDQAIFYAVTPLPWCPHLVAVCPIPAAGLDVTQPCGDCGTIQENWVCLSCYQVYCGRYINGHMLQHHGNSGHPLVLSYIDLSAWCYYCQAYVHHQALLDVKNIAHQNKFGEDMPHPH

[2] = target: T1, Protein deacetylase HDAC6 (Homo sapiens); assay: Inhibition of HDAC6 in human A549 cells assessed as acetyl alpha-tubulin level at 10 uM incubated for 5 hrs by western blot analysis relative to control; assay type: cell-based
[3] = target: T2, Class 1 histone deacetylase (Homo sapiens) (UniProt Q13547+O15379+Q92769+Q9BY41); assay: Inhibition of class 1 HDAC in human A549 cells assessed as acetyl histone H4 level at 2 uM incubated for 5 hrs by western blot analysis relative to control; assay type: cell-based
T2 sequence (O15379 whole entry, looked up): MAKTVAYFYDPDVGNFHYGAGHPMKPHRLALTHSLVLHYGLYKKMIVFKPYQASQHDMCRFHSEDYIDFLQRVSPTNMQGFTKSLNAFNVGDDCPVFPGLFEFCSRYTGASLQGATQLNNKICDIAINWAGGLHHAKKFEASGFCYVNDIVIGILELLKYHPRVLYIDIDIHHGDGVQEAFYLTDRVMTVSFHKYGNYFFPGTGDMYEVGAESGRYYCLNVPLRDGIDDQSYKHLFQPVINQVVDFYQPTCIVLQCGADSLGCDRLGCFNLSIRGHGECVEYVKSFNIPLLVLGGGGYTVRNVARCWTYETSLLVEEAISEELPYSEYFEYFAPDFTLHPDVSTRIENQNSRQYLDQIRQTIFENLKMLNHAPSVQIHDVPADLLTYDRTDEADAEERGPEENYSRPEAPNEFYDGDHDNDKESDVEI
T2 sequence (Q13547 whole entry, looked up): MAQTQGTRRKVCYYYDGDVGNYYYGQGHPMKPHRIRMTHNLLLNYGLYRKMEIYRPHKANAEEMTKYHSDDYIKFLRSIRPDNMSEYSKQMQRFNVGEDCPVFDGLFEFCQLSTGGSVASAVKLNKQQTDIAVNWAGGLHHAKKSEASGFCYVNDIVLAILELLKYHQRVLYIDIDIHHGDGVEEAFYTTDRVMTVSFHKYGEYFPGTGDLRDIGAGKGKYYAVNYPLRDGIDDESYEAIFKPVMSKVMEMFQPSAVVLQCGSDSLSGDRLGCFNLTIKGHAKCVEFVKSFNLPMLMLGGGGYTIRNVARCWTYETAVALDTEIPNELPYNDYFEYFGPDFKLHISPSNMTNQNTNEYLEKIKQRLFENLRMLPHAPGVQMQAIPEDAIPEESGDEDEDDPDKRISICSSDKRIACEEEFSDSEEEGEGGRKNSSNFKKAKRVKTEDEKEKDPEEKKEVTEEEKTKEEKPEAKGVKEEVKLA
T2 sequence (Q92769 whole entry, looked up): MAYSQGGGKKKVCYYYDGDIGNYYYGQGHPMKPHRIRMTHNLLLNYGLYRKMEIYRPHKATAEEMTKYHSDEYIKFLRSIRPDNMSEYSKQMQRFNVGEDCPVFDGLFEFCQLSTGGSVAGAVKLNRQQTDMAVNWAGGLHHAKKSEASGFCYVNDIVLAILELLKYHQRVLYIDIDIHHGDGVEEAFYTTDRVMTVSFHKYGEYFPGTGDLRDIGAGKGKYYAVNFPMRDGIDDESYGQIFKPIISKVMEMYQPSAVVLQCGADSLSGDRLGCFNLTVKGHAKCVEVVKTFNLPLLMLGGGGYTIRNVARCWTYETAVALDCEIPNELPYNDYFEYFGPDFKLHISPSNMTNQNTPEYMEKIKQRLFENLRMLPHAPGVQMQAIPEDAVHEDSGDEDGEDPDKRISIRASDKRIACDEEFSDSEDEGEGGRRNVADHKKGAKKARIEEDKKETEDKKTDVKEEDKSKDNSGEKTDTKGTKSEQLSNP
T2 sequence (Q9BY41 whole entry, looked up): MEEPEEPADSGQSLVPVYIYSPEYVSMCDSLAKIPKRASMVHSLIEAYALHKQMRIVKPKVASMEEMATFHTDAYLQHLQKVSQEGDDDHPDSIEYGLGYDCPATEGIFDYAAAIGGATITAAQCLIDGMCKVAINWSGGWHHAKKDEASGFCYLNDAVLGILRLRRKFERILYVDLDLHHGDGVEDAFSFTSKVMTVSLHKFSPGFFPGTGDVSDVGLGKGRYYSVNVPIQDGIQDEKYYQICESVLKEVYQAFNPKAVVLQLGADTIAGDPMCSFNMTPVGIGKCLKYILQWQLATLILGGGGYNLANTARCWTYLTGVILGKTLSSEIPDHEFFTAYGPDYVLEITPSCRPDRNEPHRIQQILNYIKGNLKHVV

[4] = target: T2, Class 1 histone deacetylase (Homo sapiens); assay: Inhibition of class 1 HDAC in human A549 cells assessed as acetyl histone H4 level at 10 uM incubated for 5 hrs by western blot analysis relative to control; assay type: cell-based
[5] = target: T3, Protein deacetylase HDAC6 (Homo sapiens, UniProt Q9UBN7); assay: Inhibition of N-terminal GST-tagged human full length recombinant HDAC6 (1 to 1215 residues) expressed in Sf9 cells using Boc-Lys(acetyI)-AMC as substrate preincubated with enzyme for 1 hr followed by substrate addition and measured after 30 mins by fluorescence based analysis
T3 sequence (Q9UBN7 whole entry): T1 sequence (whole entry)

Histone deacetylase 2 = Histone deacetylase 2 (Homo sapiens, UniProt Q92769); assay: Inhibition of C-terminal FLAG-tagged human full length recombinant HDAC2 (1 to 488 residues) expressed in Sf9 cells using Boc-Lys(acetyI)-AMC as substrate preincubated with enzyme for 1 hr followed by substrate addition and measured after 30 mins by fluorescence based analysis
Histone deacetylase 2, sequence (Q92769 whole entry, the tested form may be a part): as the sequence (Q92769 whole entry, looked up) above

Homo sapiens = organism: Homo sapiens; assay: Selectivity index, ratio of IC50 for inhibition of C-terminal FLAG-tagged human full length recombinant HDAC2 (1 to 488 residues) expressed in Sf9 cells to IC50 for inhibition of N-terminal GST-tagged human full length recombinant HDAC6 (1 to 1215 residues) expressed in Sf9 cells
[6] = target: T1, Protein deacetylase HDAC6 (Homo sapiens); settings: A549, dose 80.0 nM, time 5.0 hrs
[7] = target: T2, Class 1 histone deacetylase (Homo sapiens); assay: Irreversible inhibition of class 1 HDAC in human A549 cells assessed as acetyl histone H4 level at 2 uM incubated for 5 hrs followed by drug wash-out for 24 hrs by western blot analysis; assay type: cell-based
[8] = target: T2, Class 1 histone deacetylase (Homo sapiens); assay: Irreversible inhibition of class 1 HDAC in human A549 cells assessed as acetyl histone H4 level at 2 uM incubated for 5 hrs followed by drug wash-out for 1 hr by western blot analysis; assay type: cell-based
[9] = target: T2, Class 1 histone deacetylase (Homo sapiens); assay: Irreversible inhibition of class 1 HDAC in human A549 cells assessed as acetyl histone H4 level at 2 uM incubated for 5 hrs followed by drug wash-out and measured immediately after drug wash-out by western blot analysis; assay type: cell-based
[10] = target: T1, Protein deacetylase HDAC6 (Homo sapiens); assay: Irreversible inhibition of HDAC6 in human A549 cells assessed as acetyl alpha-tubulin level at 2 uM incubated for 5 hrs followed by drug wash-out for 24 hrs by western blot analysis relative to control; assay type: cell-based
[11] = target: T1, Protein deacetylase HDAC6 (Homo sapiens); assay: Irreversible inhibition of HDAC6 in human A549 cells assessed as acetyl alpha-tubulin level at 2 uM incubated for 5 hrs followed by drug wash-out for 1 hr by western blot analysis relative to control; assay type: cell-based
[12] = target: T1, Protein deacetylase HDAC6 (Homo sapiens); assay: Irreversible inhibition of HDAC6 in human A549 cells assessed as acetyl alpha-tubulin level at 2 uM incubated for 5 hrs followed by drug wash-out and measured immediately after drug wash-out by western blot analysis relative to control; assay type: cell-based
RPMI-8226 = assay: Antiproliferative activity against human RPMI-8226 cells assessed as inhibition of cell proliferation incubated for 48 hrs by CCK8 assay; assay type: functional, cell-based; settings: RPMI-8226, 48 h
U-266 = assay: Antiproliferative activity against human U-266 cells assessed as inhibition of cell proliferation incubated for 48 hrs by CCK8 assay; assay type: functional, cell-based; settings: U-266, 48 h
MM1.S = assay: Antiproliferative activity against human MM1.S cells assessed as inhibition of cell proliferation incubated for 48 hrs by CCK8 assay; assay type: functional, cell-based
[13] = Cytotoxicity against human L02 cells assessed as inhibition of cell proliferation incubated for 48 hrs by CCK8 assay; assay type: toxicity, cell-based
[14] = target: T1, Protein deacetylase HDAC6 (Homo sapiens); assay: Irreversible inhibition of HDAC6 in human A549 cells assessed as acetyl alpha-tubulin level at 2 uM incubated for 5 hrs followed by drug wash-out for 6 hrs by western blot analysis relative to control; assay type: cell-based
[15] = Effect on HDAC6 protein expression in human A549 cells assessed as change in HDAC6 protein expression at 2 uM incubated for 5 hrs followed by drug wash-out and measured following drug wash-out by western blot analysis relative to control; assay type: functional
[16] = Effect on HDAC6 protein expression in human A549 cells assessed as change in HDAC6 protein expression at 2 uM incubated for 5 hrs followed by drug wash-out for 1 hr by western blot analysis relative to control; assay type: functional
[17] = Effect on HDAC6 protein expression in human A549 cells assessed as change in HDAC6 protein expression at 2 uM incubated for 5 hrs followed by drug wash-out for 6 hrs by western blot analysis relative to control; assay type: functional
[18] = Effect on HDAC6 protein expression in human A549 cells assessed as change in HDAC6 protein expression at 2 uM incubated for 5 hrs followed by drug wash-out for 24 hrs by western blot analysis relative to control; assay type: functional
[19] = target: T2, Class 1 histone deacetylase (Homo sapiens); assay: Irreversible inhibition of class 1 HDAC in human A549 cells assessed as acetyl histone H4 level at 2 uM incubated for 5 hrs followed by drug wash-out for 6 hrs by western blot analysis; assay type: cell-based
[20] = target: T2, Class 1 histone deacetylase (Homo sapiens); assay: Irreversible inhibition of class 1 HDAC in human A549 cells assessed as acetyl histone H3 level at 2 uM incubated for 5 hrs followed by drug wash-out and measured immediately after drug wash-out by western blot analysis; assay type: cell-based
[21] = target: T2, Class 1 histone deacetylase (Homo sapiens); assay: Irreversible inhibition of class 1 HDAC in human A549 cells assessed as acetyl histone H3 level at 2 uM incubated for 5 hrs followed by drug wash-out for 1 hr by western blot analysis; assay type: cell-based
[22] = target: T2, Class 1 histone deacetylase (Homo sapiens); assay: Irreversible inhibition of class 1 HDAC in human A549 cells assessed as acetyl histone H3 level at 2 uM incubated for 5 hrs followed by drug wash-out for 6 hrs by western blot analysis; assay type: cell-based
[23] = target: T2, Class 1 histone deacetylase (Homo sapiens); assay: Irreversible inhibition of class 1 HDAC in human A549 cells assessed as acetyl histone H3 level at 2 uM incubated for 5 hrs followed by drug wash-out for 24 hrs by western blot analysis; assay type: cell-based

fold change (FC) [1] | fold change (FC) [3] | IC50 [5] [nM] | IC50 (Histone deacetylase 2) [nM] | IC50 (RPMI-8226) [nM] | IC50 (MM1.S) [nM] | Compound | Ratio IC50 (Homo sapiens) | IC50 (U-266) [nM] | IC50 at 48 h [13] [nM] | also measured
1.3 | 1.3 |  |  |  |  | O=S(=O)(c1ccccc1)c1c(OCCCCCCO)no[n+]1[O-] |  |  |  | fold change (FC) [2]: 1.2; fold change (FC) [4]: 0.8
1.1 | 0.2 | 39200 | 8100 |  |  | O=C(NO)c1cccc(Oc2no[n+]([O-])c2S(=O)(=O)c2ccccc2)c1 | 0.2 |  |  | 
1.3 | 0.4 | 2700 | 5300 |  |  | COc1cc(C(=O)NO)ccc1Oc1no[n+]([O-])c1S(=O)(=O)c1ccccc1 | 2 |  |  | 
0.8 | 0.5 | 10400 | 6600 |  |  | O=C(/C=C/COc1no[n+]([O-])c1S(=O)(=O)c1ccccc1)NO | 0.6 |  |  | 
 |  |  |  |  |  | CN1CCc2c(c3ccccc3n2Cc2ccc(C(=O)NO)cc2)C1 |  |  |  | inhibition [6]: Active
2.7 | 1.7 | 310 | 1000 |  |  | O=C(/C=C/c1ccc(Oc2no[n+]([O-])c2S(=O)(=O)c2ccccc2)cc1)NO | 3.2 |  |  | 
3.8 | 2.1 | 47 |  | 480 | 430 | O=C(CCCCCOc1no[n+]([O-])c1S(=O)(=O)c1ccccc1)NO |  | 690 | 8700 | fold change (FC) [7]: 1.8; fold change (FC) [8]: 4.7; fold change (FC) [9]: 4.4; fold change (FC) [10]: 2.5; fold change (FC) [11]: 2.2; fold change (FC) [12]: 2
 |  |  |  | 1100 | 910 | O=S(=O)(c1ccccc1)c1c(OCc2ccc(CO)cc2)no[n+]1[O-] |  | 1500 | 8400 | 
2.1 | 0.5 | 160 | 3400 | 1200 | 1100 | O=C(NO)c1ccc(Oc2no[n+]([O-])c2S(=O)(=O)c2ccccc2)cc1 | 21.3 | 1300 | 14300 | fold change (FC) [7]: 0.6; fold change (FC) [8]: 1.6; fold change (FC) [9]: 1; fold change (FC) [10]: 2.2; fold change (FC) [11]: 4.4; fold change (FC) [12]: 3.9; fold change (FC) [14]: 3.7; fold change (FC) [15]: 0.9; fold change (FC) [16]: 1.1; fold change (FC) [17]: 1.1; fold change (FC) [18]: 1.2; fold change (FC) [19]: 0.9; fold change (FC) [20]: 1.1; fold change (FC) [21]: 1.2; fold change (FC) [22]: 0.9; fold change (FC) [23]: 0.7
 |  |  |  | 6100 | 6400 | O=C(NO)c1ccc(COc2nonc2S(=O)(=O)c2ccccc2)cc1 |  | > 10000 | > 30000 | 

Reference: ChEMBL document CHEMBL5346971, “Discovery of the First Irreversible HDAC6 Isoform Selective Inhibitor with Potent Anti-Multiple Myeloma Activity” (J Med Chem, 2023)
